Laboratory results: patent publication US20250281483A1, “TRANSCRIPTION FACTOR EB ACTIVATORS AND USES THEREOF” (Astellas Engineered Small Molecules US, Incorporated, priority 2022, published 2025)

biological target: T1, TFEB (Homo sapiens, UniProt P19484); experiment: Tfeb-Translocation Assay HEK-293T-oEX-Tfeb-GFP Cell Line; type: cell-based; conditions: HEK-293T-oEX-TFEB-GFP cells; reference compound; read-out: EC50 of reference compound (TFEB translocation)
T1 sequence (P19484 1-476): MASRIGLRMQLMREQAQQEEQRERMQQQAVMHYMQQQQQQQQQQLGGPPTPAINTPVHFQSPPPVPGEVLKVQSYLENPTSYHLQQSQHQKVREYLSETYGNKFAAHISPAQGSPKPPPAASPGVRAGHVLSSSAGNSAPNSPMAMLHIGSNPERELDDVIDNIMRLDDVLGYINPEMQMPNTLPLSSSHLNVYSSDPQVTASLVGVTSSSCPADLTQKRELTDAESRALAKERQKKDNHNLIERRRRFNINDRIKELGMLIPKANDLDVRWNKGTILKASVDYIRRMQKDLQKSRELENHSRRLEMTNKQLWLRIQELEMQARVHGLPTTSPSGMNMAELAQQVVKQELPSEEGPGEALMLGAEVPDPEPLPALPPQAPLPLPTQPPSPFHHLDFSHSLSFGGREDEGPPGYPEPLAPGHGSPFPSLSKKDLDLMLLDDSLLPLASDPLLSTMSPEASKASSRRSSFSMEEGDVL
Method: Tfeb-Translocation Assay HEK-293T-oEX-Tfeb-GFP Cell Line
• 1). Added 2×10^6 cell into a T75 flask with 15 mL DiVEM medium (with 10% FBS, 1% PS, 1×GLUTAMAX, 1×MEM NEAA, 1×HEPES Buffer Solution and 5 ug/mL blasticidin). • 2). Culturing for 48-72 hours. Cells in logarithmic growth phase were taken for experiment. The other cells were passaged as described in step 1. • 3). Seeded 1×10^4 cells/30 μL/well into 384-well plate (BD 356663). Cultured overnight at 37° C. & 5% CO2 incubator. • 4). Note: Used cells <10 passage
• 1). Compounds were firstly diluted by DMSO to the stock needed (10 mM), and aliquoted and stored at −20° C. • 2). Took one aliquot each time and made 3-fold or 2-fold dilutions as indicated, total 10 doses plus one DMSO control well in the source plate. • 3). Added 150 or 90 nL/well compounds solution to the assay plate by ECHO and incubated for 6 or 18 hours respectively at 37° C. & 5% CO2 incubator.
• 1). Added 30 uL 8% PFA into the wells and incubated 20 min at room temperature. • 2). Discarded the medium, washed the wells twice with DPBS to eliminate foam and bubbles in the well.
• 1). Diluted Hoechest-333824 in DPBS to get 2 μg/mL solution and added 30 uL/well into assay plate, incubated at room temperature for 20 mins. • 2). Discarded the supernatant, washed the wells twice with DPBS to eliminate foam and bubbles in the well. Then added DPBS 20 uL/well.
3). Scanned Plate by Operetta.
• 1). Reference compound: Torin 1 • 2). Test compounds: C1, C2, C3, C4, C5, C6. • 3). Diluted compounds in 384 LDV-dilution plate according to the dilution plate map • 4). Compounds starting concentration: Torin 1: 300 nM and Test compounds: 50 uM.
• 1). Selected all nucleus by Operetta as ‘All Cells’ • 2). Calculated the EGFP average intensity inside the Nucleus region. • 3). Selected population that the EGFP mean intensity inside the Nucleus region>background as the EGFP-positive cells • 4). Selected the Surrounding region of the nucleus and calculated the EGFP mean intensity of the region • 5). Inside the EGFP-positive cell population, selected the cells with EGFP mean intensity inside the Nucleus region/the EGFP mean intensity inside the surrounding region=1.2 (This ratio could be slightly adjusted from time to time) as the Translocation positive cell. • 6). Outputted the ratio of Translocation positive cell/EGFP-positive cells as the Translocation Positive Ratio. • 7). Each time set the ratio of DMSO group (Control Group) as ˜15% and then normalized the compound group to the DMSO group.

EC50 [nM] | Compound
28.3 | CCC(=O)N1CCN(c2ccc(-n3c(=O)ccc4cnc5ccc(-c6cnc7ccccc7c6)cc5c43)cc2C(F)(F)F)CC1 [Torin 1, reference compound]

same assay, conditions: HEK-293T-oEX-TFEB-GFP cells; translocation positive cells ratio; read-out: TFEB Translocation EC50

Compound | EC50 [nM]
Cc1noc(CNC(=O)c2cc3c(=O)n(Cc4ccccc4)ccc3nc2C)n1 [Example 10, 6-benzyl-2-methyl-N-((3-methyl-1,2,4-oxadiazol-5-yl)methyl)-5-oxo-5,6-dihydro-1,6-naphthyridine-3-carboxamide] | 100 to 1000
Cc1nc2ccn(C)c(=O)c2cc1C(=O)NCc1ccccn1 [Example 53, 2,6-dimethyl-5-oxo-N-(pyridin-2-ylmethyl)-5,6-dihydro-1,6-naphthyridine-3-carboxamide] | ≥ 10000
Cc1nc2ccn(Cc3ccccc3)c(=O)c2cc1C(=O)NCc1ccc(C(F)(F)F)cc1 [Example 25, 6-benzyl-2-methyl-5-oxo-N-(4-(trifluoromethyl)benzyl)-5,6-dihydro-1,6-naphthyridine-3-carboxamide] | ≥ 10000
Cc1nc2ccn(Cc3ccc(F)c(F)c3)c(=O)c2cc1C(=O)NCc1ccccn1 [Example 61, 6-(3,4-difluorobenzyl)-2-methyl-5-oxo-N-(pyridin-2-ylmethyl)-5,6-dihydro-1,6-naphthyridine-3-carboxamide] | < 100
Cc1nc2ccn(Cc3ccccc3)c(=O)c2cc1C(=O)NCc1ncccn1 [Example 29, 6-benzyl-2-methyl-5-oxo-N-(pyrimidin-2-ylmethyl)-5,6-dihydro-1,6-naphthyridine-3-carboxamide] | ≥ 10000
Cc1nc2ccn(Cc3ccccc3)c(=O)c2cc1C(=O)NCc1ccccc1F [Example 16, 6-benzyl-N-(2-fluorobenzyl)-2-methyl-5-oxo-5,6-dihydro-1,6-naphthyridine-3-carboxamide] | 100 to 1000
Cc1nc2ccn(Cc3ccc(F)cn3)c(=O)c2cc1C(=O)NCc1ccccn1 [Example 44, 6-((5-fluoropyridin-2-yl)methyl)-2-methyl-5-oxo-N-(pyridin-2-ylmethyl)-5,6-dihydro-1,6-naphthyridine-3-carboxamide] | 1000 to 10000
Cc1ccc(Cn2ccc3nc(C)c(C(=O)NCc4ccccn4)cc3c2=O)cc1 [Example 54, 2-methyl-6-(4-methylbenzyl)-5-oxo-N-(pyridin-2-ylmethyl)-5,6-dihydro-1,6-naphthyridine-3-carboxamide] | < 100
Nc1nc2ccn(Cc3ccccc3)c(=O)c2cc1C(=O)NCc1ccccn1 [Example 74, 2-amino-6-benzyl-5-oxo-N-(pyridin-2-ylmethyl)-5,6-dihydro-1,6-naphthyridine-3-carboxamide] | 1000 to 10000
Cc1nc2ccn(Cc3ccccc3)c(=O)c2cc1C(=O)NCc1cc(F)ccn1 [Example 39, 6-benzyl-N-((4-fluoropyridin-2-yl)methyl)-2-methyl-5-oxo-5,6-dihydro-1,6-naphthyridine-3-carboxamide] | 100 to 1000
Cc1nc2ccn(Cc3ccccc3)c(=O)c2cc1C(=O)NCc1ccc(F)cn1 [Example 35, 6-benzyl-N-((5-fluoropyridin-2-yl)methyl)-2-methyl-5-oxo-5,6-dihydro-1,6-naphthyridine-3-carboxamide] | < 100
Cc1nc2ccn(Cc3ccccc3)c(=O)c2cc1C(=O)NCc1ccn(C)n1 [Example 14, 6-benzyl-2-methyl-N-((1-methyl-1H-pyrazol-3-yl)methyl)-5-oxo-5,6-dihydro-1,6-naphthyridine-3-carboxamide] | 100 to 1000
COCCn1ccc2nc(C)c(C(=O)NCc3cnc(C)o3)cc2c1=O [Example 21, 6-(2-methoxyethyl)-2-methyl-N-((2-methyloxazol-5-yl)methyl)-5-oxo-5,6-dihydro-1,6-naphthyridine-3-carboxamide] | ≥ 10000

Continued, values first:

EC50 [nM] | Compound
100 to 1000 | Cc1nc2ccn(CC3CCCCO3)c(=O)c2cc1C(=O)NCc1ccc(Cl)cc1 (centres unmarked) [Example 26, N-(4-chlorobenzyl)-2-methyl-5-oxo-6-((tetrahydro-2H-pyran-2-yl)methyl)-5,6-dihydro-1,6-naphthyridine-3-carboxamide]
≥ 10000 | CNC(=O)c1cc2c(=O)n(Cc3ccccc3)ccc2nc1C [Example 42, 6-benzyl-N,2-dimethyl-5-oxo-5,6-dihydro-1,6-naphthyridine-3-carboxamide]
≥ 10000 | Cc1nc2ccn(Cc3ccccc3)c(=O)c2cc1C(=O)NC(C)c1ccccn1 (centres unmarked) [Example 28, 6-benzyl-2-methyl-5-oxo-N-(1-(pyridin-2-yl)ethyl)-5,6-dihydro-1,6-naphthyridine-3-carboxamide]
100 to 1000 | Cc1nc2ccn(Cc3ccccc3)c(=O)c2cc1C(=O)NCc1cnn(C)n1 [Example 9, 6-benzyl-2-methyl-N-((2-methyl-2H-1,2,3-triazol-4-yl)methyl)-5-oxo-5,6-dihydro-1,6-naphthyridine-3-carboxamide]
1000 to 10000 | Cc1nc2ccn(CC3CCCO3)c(=O)c2cc1C(=O)NCc1ccc(Cl)cc1 (centres unmarked) [Example 11, N-(4-chlorobenzyl)-2-methyl-5-oxo-6-((tetrahydrofuran-2-yl)methyl)-5,6-dihydro-1,6-naphthyridine-3-carboxamide]
≥ 10000 | Cc1nc2ccn(Cc3ccccc3)c(=O)c2cc1C(=O)NCc1ccc(OC(C)C)cc1 [Example 67, 6-benzyl-N-(4-isopropoxybenzyl)-2-methyl-5-oxo-5,6-dihydro-1,6-naphthyridine-3-carboxamide]
≥ 10000 | Cc1nc2ccn(Cc3cnn(C)c3)c(=O)c2cc1C(=O)NCc1ccccn1 [Example 49, 2-methyl-6-((1-methyl-1H-pyrazol-4-yl)methyl)-5-oxo-N-(pyridin-2-ylmethyl)-5,6-dihydro-1,6-naphthyridine-3-carboxamide]
100 to 1000 | Cc1nc2ccn(C(C)c3ccccc3)c(=O)c2cc1C(=O)NCc1ccccn1 (centres unmarked) [Example 37, 2-methyl-5-oxo-6-(1-phenylethyl)-N-(pyridin-2-ylmethyl)-5,6-dihydro-1,6-naphthyridine-3-carboxamide]
< 100 | Cc1nc2ccn(Cc3ccccc3)c(=O)c2cc1C(=O)NCc1ccc(Cl)cc1 [Example 22, 6-benzyl-N-(4-chlorobenzyl)-2-methyl-5-oxo-5,6-dihydro-1,6-naphthyridine-3-carboxamide]
100 to 1000 | Cc1nc2ccn(Cc3ccccc3)c(=O)c2cc1C(=O)NCc1cncnc1 [Example 34, 6-benzyl-2-methyl-5-oxo-N-(pyrimidin-5-ylmethyl)-5,6-dihydro-1,6-naphthyridine-3-carboxamide]
100 to 1000 | Cc1nc2ccn(Cc3ccccc3)c(=O)c2cc1C(=O)NCc1cnn(C)c1 [Example 15, 6-benzyl-2-methyl-N-((1-methyl-1H-pyrazol-4-yl)methyl)-5-oxo-5,6-dihydro-1,6-naphthyridine-3-carboxamide]
100 to 1000 | 6-benzyl-2-methyl-N-((4-methyloxazol-2-yl)methyl)-5-oxo-5,6-dihydro-1,6-naphthyridine-3-carboxamide [Example 66]
1000 to 10000 | Cc1nc2ccn(Cc3ccccc3)c(=O)c2cc1C(=O)NCCc1ccco1 [Example 73, 6-benzyl-N-(2-(furan-2-yl)ethyl)-2-methyl-5-oxo-5,6-dihydro-1,6-naphthyridine-3-carboxamide]
1000 to 10000 | Cc1nc2ccn(Cc3ccccc3)c(=O)c2cc1C(=O)NCc1cccnn1 [Example 33, 6-benzyl-2-methyl-5-oxo-N-(pyridazin-3-ylmethyl)-5,6-dihydro-1,6-naphthyridine-3-carboxamide]
1000 to 10000 | COCCn1ccc2nc(C)c(C(=O)NCc3ccc(Cl)cc3)cc2c1=O [Example 20, N-(4-chlorobenzyl)-6-(2-methoxyethyl)-2-methyl-5-oxo-5,6-dihydro-1,6-naphthyridine-3-carboxamide]
